The target in data set [1] is T1, P450 BM3 (Priestia megaterium, UniProt P14779). In words: P450 BM3 catalysed oxidation of methane to methanol in the presence of an additive. The format is biochemical, Bacillus megaterium. More on the design: polyhistidine (His6) tag from vector pETM11 (N); made in house; host or cells: E. coli BL21 (DE3) GOLD. As to conditions: 1 mM additive, 25° C; for Total product formed (methanol): 7% methane, 8% O2, 85% N2, 10 bar; for TON: methane, 10 bar. The method, then:
(§1) The hydroxylation of gaseous alkanes was carried out in a self-constructed low-pressure reactor. […] Subsequently the reaction vessels were linked to a gas bottle via a multichannel gas feed. The following gas mixtures were used to flush the apparatus and to apply a pressure of 10 bar to the reaction solution: a) 7% methane, 8% oxygen, 85% nitrogen, b) 7% propane, 8% oxygen, 85% nitrogen or c) 10% butane, 8% oxygen, 82% nitrogen. The reaction mixture was stirred at 100 rpm with a crosshead-shaped magnetic stirrer (VWR). At the end of the reaction the pressure was carefully released from the reaction vessels, a 1 ml aliquot was centrifuged for 10 min at 13 000 rpm and analyzed by HPLC. […] Each experiment comprised at least one positive control for the enzyme activity, in which dodecanoic acid was added as additive (1 mM final concentration, from a 100 mM stock in DMSO), while the enzyme was exposed to 10 bar of the gaseous alkane mixture. The reaction of dodecanoic acid was analyzed using decanoic acid (1 mM final concentration, from a 100 mM stock in DMSO) as standard. The samples were extracted for the GC analysis with 0.5 volume of MTBE and were analyzed by GC.
30 min isotherm, 60-240° C. at 16° C./min, 240° C. for 5 min isotherm.
The quantification of propanol and butanol was carried out using the RID-10A detector, while the quantification of methanol was carried out using the RID-10A or, preferably, the ED 50 detector. The ED 50 detector was operated in integrated, amperometric detection mode with an Ag reference electrode in the range of 300 nC. The detection was carried out in waveform as follows: […]

In data set [2] the target is T1, P450 BM3. In words: P450 BM3 catalysed oxidation of butane and propane in the presence of additives. On the set-up: polyhistidine (His6) tag from vector pETM11 (N); made in house; host or cells: E. coli BL21 (DE3) GOLD. The format is biochemical, Bacillus megaterium. As to conditions: 1 mM additive, 25° C; for % ee: Butane oxidation product; for TON: 10 bar. The method, then: as §1
The quantification of propanol and butanol was carried out using the RID-10A detector, while the quantification of methanol was carried out using the RID-10A or, preferably, the ED 50 detector. The ED 50 detector was operated in integrated, amperometric detection mode with an Ag reference electrode in the range of 300 nC. The detection was carried out in waveform as follows:
The P450 BM3 catalysed oxidation of butane and propane was carried out in the presence or absence of additives 1 under standard conditions as follows: 2.5 ml reaction volume, 5 ml gas volume, 1% DMF, 100 mM KPi, pH 8.0, 10 bar pressure (10% n-butane, 8% O2, 82% N2; 7% propane, 8% O2, 85% N2), propane oxidation: 14.5 h, butane oxidation: 17.5 h., 25° C.

For data set [3], the target named is T1, P450 BM3. As to conditions: 1 mM additive, 20° C; for TON: mol of product/mol of enzyme; for Regioselectivity: 1 hour.
Protocol: For hydroxylating alkanes, for example C6 and C8 alkanes, the substrate was added to the reaction solution from a 160 mM stock in EtOH and was adjusted to a final concentration of 3.2 mM. The solution further comprised 0.1 M glucose (Riedel de Haen), 1 mM NADP^+ (Codexis, Jülich, Germany), 1 U/ml GDH (#001, Codexis, Jülich, Germany), 1 mM additive (unless otherwise stated), BM3-WT enzyme and 100 mM KPi, pH 8.0 with a total volume of 20 ml. The reactions were shaken for 1 hour at 20° C. in a 50 ml Falcon reaction tube in a bacterial incubator at 130 rpm. After one hour, three aliquots were removed, each of 1 ml volume, and acidified with 0.1 ml of 10% HCl. Subsequently 1 mM 1-pentanol was added as internal standard. The mixture was extracted with half a volume of MTBE and analyzed by gas chromatography.
Hydroxylation products were analyzed by GC using the following instruments and under the following conditions: HP6890+7683HP (Hewlett Packard, USA); column: 15 m Stabilwax phase, internal diameter 0.25 mm, film thickness 0.5 μm, (J&W, Germany); pressure: 0.8 bar H2; split rate 60; injector: 220° C.; temperature gradient: 40° C. 4 min isotherm, 40-60° C. at 4° C./min, 60° C.-250° C. at 15° C./min. FID detector. The product peaks were quantified as a ratio to the 1 mM 1-pentanol peak using the following, previously determined, correction factors: 2-octanol: 2.36; 3-,4-octanol: 2.23; 2-,3-hexanol:1.218; 3-Me-3-PeOH,3-Me-2-PeOH: 1.49; 3,3-Di-Me-2-BuOH: 1.43; 2,3-Di-Me-BuOH: 1.317.
Reaction conditions: 3.2 mM alkane; 1% v/v DMF; 2% v/v ethanol; 100 mM glucose, 1 mM NADP^+, 1 U/ml GDH, 1 mM additive, 100 mM KPi, pH 8.0, total volume 20 ml; 1 hour; 20° C. The P450-BM3 concentration depended on the compound used 2: 1 μM, 3: 2.9 μM, 4: 2.9 μM, 5: 1.1 μM, 6: 2.7 μM)
The turnover numbers (TON) were calculated (mol of product/mol of enzyme) for the enzyme at the end of the reaction.
[4] abbreviates: Butane (10% n-butane, 8% O2, 82% N2, 10 bar), 2.3 μM enzyme, 17.5 h.
Where [5] appears, read: alkane 2 (3.2 mM), 1 μM P450-BM3, 1 hour.
Where [6] appears, read: alkane 4 (3.2 mM), 2.9 μM P450-BM3, 1 hour.
[7] abbreviates: alkane 5 (3.2 mM), 1.1 μM P450-BM3, 1 hour.
The mark [8] stands for this setting: alkane 3 (3.2 mM), 2.9 μM P450-BM3, 1 hour.
The mark [9] stands for this setting: alkane 6 (3.2 mM), 2.7 μM P450-BM3, 1 hour.
Where [10] appears, read: Propane (7% propane, 8% O2, 85% N2, 10 bar), 2.9 μM enzyme, 14.5 h.

Read-outs that look alike come from different tables or passages of the source.

T1 sequence (P14779 whole entry): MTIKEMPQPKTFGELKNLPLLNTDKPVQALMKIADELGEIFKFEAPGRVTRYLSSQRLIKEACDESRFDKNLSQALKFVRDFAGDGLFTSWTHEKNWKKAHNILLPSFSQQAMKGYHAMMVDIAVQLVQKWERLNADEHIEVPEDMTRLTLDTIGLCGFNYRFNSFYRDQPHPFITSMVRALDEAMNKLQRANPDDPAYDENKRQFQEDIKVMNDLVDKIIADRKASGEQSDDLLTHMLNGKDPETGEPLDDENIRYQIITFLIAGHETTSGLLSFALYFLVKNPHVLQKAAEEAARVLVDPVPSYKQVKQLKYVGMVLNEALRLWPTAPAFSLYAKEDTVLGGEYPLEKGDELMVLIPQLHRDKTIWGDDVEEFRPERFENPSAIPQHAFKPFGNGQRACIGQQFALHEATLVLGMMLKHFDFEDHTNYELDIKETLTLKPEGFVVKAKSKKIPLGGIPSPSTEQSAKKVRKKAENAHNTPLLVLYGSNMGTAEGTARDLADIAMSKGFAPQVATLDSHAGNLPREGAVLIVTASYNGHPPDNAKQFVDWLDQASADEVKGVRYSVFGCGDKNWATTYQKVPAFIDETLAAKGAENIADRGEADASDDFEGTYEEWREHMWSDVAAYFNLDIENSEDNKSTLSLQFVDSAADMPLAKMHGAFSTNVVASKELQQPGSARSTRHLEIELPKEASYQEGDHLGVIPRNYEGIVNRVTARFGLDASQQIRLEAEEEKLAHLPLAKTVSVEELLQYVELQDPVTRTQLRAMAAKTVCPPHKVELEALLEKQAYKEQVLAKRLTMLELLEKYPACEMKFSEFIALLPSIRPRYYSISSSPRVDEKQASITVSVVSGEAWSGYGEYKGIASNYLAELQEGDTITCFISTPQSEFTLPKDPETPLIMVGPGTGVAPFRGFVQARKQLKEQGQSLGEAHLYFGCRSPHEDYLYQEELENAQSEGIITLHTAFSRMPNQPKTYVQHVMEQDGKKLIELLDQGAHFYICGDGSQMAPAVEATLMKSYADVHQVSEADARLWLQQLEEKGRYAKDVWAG

On to `OCCCC(F)(F)C(F)(F)C(F)(F)C(F)(F)C(F)(F)C(F)(F)C(F)(F)C(F)(F)F` [1H, 1H, 2H, 2H, 3H, 3H-Perfluoroundecano, 1H, 1H, 1H, 2H, 2H, 3H, 3H-perfluoroundecanol], for which, in data set [1] (19 h), the “Total product formed (methanol)” value was 0.84 mM and the TON is 630.

For `OCCC(F)(F)C(F)(F)C(F)(F)C(F)(F)C(F)(F)C(F)(F)F` [1H, 1H, 2H, 2H-perfluorooctan-1-ol], in data set [1] (19 h), the “Total product formed (methanol)” value is on record as 2.53 mM and the TON is listed as 1889.

Regarding `OCCCCCCC(F)(F)C(F)(F)F` [6(perfluoroethyl)hexanol, 6-(perfluoroethyl)hexanol], in data set [1] (19 h), the “Total product formed (methanol)” value was determined as 2.69 mM and the TON is 2006.

Take `O=C(O)C(F)(F)F` [Additive 1a]: the Total product formed in data set [2] (setting [4]) is 1.1 mM. In data set [2] (17.5 h), the “% ee” value was determined as 32%. Further, the TON in data set [2] (Butane, 2.3 μM enzyme, 17.5 h) is 469.

In the case of `O=C(O)C(F)(F)C(F)(F)C(F)(F)C(F)(F)C(F)(F)C(F)(F)F` [Additive 1b, perfluoroheptanoic acid], in data set [2] (setting [4]), the Total product formed was determined as 8.4 mM. In data set [2] (17.5 h), the “% ee” value was found to be 22%. Besides, in data set [2] (Butane, 2.3 μM enzyme, 17.5 h), the TON is recorded as 3632.

With `O=C(O)C(F)(F)C(F)(F)C(F)(F)C(F)(F)C(F)(F)C(F)(F)C(F)(F)C(F)(F)F` [Additive 1c, perfluorononanoic acid], the Total product formed in data set [3] (setting [5]) is 1.16 mM; in data set [3] (setting [6]), 1.36 mM; in data set [3] (setting [7]) it was 0.96 mM; in data set [2] (setting [4]), 2.0 mM. For the same compound, the TON in data set [3] (setting [5]) is 1184; in data set [3] (setting [6]) it was 476; in data set [3] (setting [7]) it was 892; in data set [2] (Butane, 2.3 μM enzyme, 17.5 h) it was 879; in data set [1] (1.3 μM enzyme, 21 h) it was 2053. Moreover, the Regioselectivity result in data set [3] (alkane 5 (3.2 mM), cell reads: only 2-Hydroxy-3,3-dimethylbutane) is on record as “only 2-Hydroxy-3,3-”. The “% ee” value in data set [2] (17.5 h) worked out at 23%. Also, the “Total product formed (methanol)” value in data set [1] (1.3 μM enzyme, 21 h) is 2.75 mM.

`O=C(O)C(F)(F)C(F)(F)C(F)(F)C(F)(F)C(F)(F)C(F)(F)C(F)(F)C(F)(F)C(F)(F)F` [Additive 1d, perfluorodecanoic acid]: the Total product formed in data set [2] (setting [4]) came out at 3.9 mM. Also, the “% ee” value in data set [2] (17.5 h) came to 20%. Moreover, the TON in data set [2] (Butane, 2.3 μM enzyme, 17.5 h) is 1699. Besides, in data set [1] (1.3 μM enzyme, 21 h), the “Total product formed (methanol)” value is recorded as 3.31 mM and the TON came to 2472.

Consider `O=C(O)C(F)(F)C(F)(F)C(F)(F)C(F)(F)C(F)(F)C(F)(F)C(F)(F)C(F)(F)C(F)(F)C(F)(F)F` [Additive 1e, perfluoroundecanoic acid], for which the Total product formed is recorded as 1.50 mM in data set [3] (setting [8]), 0.19 mM in data set [3] (setting [9]), 5.8 mM in data set [2] (setting [4]) and 3.0 mM in data set [2] (setting [10]). Also, the TON is 525 in data set [3] (setting [8]); 3241 in data set [3] (setting [9]); 2519 in data set [2] (Butane, 2.3 μM enzyme, 17.5 h); 1021 in data set [2] (Propane, 2.9 μM enzyme, 14.5 h); 1353 in data set [1] (1.3 μM enzyme, 21 h). Further, the Regioselectivity entry in data set [3] (alkane 6 (3.2 mM), cell reads: only 2-Hydroxy-2,3-dimethylbutane) is on record as “only 2-Hydroxy-2,3-”. For the same compound, in data set [2] (17.5 h), the “% ee” value is 19%. In data set [1] (1.3 μM enzyme, 21 h), the “Total product formed (methanol)” value came out at 1.81 mM.

As for `O=C(O)C(F)(F)C(F)(F)C(F)(F)C(F)(F)C(F)(F)C(F)(F)C(F)(F)C(F)(F)C(F)(F)C(F)(F)C(F)(F)F` [Additive 1f, perfluorododecanoic acid], in data set [2] (setting [10]), the Total product formed stood at 0.67 mM. Also, the TON in data set [2] (Propane, 2.9 μM enzyme, 14.5 h) is 227. Moreover, in data set [1] (1.3 μM enzyme, 21 h), the “Total product formed (methanol)” value was 1.25 mM and the TON is given as 933.

Turning to `O=C(O)C(F)(F)C(F)(F)C(F)(F)C(F)(F)C(F)(F)C(F)(F)C(F)(F)C(F)(F)C(F)(F)C(F)(F)C(F)(F)C(F)(F)F` [Additive 1g, perfluorotridecanoic acid], in data set [1] (1.3 μM enzyme, 21 h), the “Total product formed (methanol)” value is given as 0.75 mM and the TON turned out to be 560.

In the case of `O=C(O)C(F)(F)C(F)(F)C(F)(F)C(F)(F)C(F)(F)C(F)(F)C(F)(F)C(F)(F)C(F)(F)C(F)(F)C(F)(F)C(F)(F)C(F)(F)F` [Additive 1h, perfluorotetradecanoic acid], the Total product formed in data set [2] (setting [10]) is reported as 0.50 mM. Also, the TON in data set [2] (Propane, 2.9 μM enzyme, 14.5 h) stood at 170. Besides, in data set [1] (1.3 μM enzyme, 21 h), the “Total product formed (methanol)” value was found to be 0.28 mM and the TON is listed as 210.

Source of the values: patent US9428771B2, “Method for the oxidation of organic compounds” (STUDIENGE[…] MBH, priority 2010, dated 2016).
